The numbers were not newly measured in patent publication US20140112913A1, “METHODS OF PROGNOSING AND ADMINISTERING TREATMENT FOR INFLAMMATORY DISORDERS” (Genqual Corporation, priority 2011, published 2014), which cites them from elsewhere.

The conditions of this data set: treatment of rheumatoid arthritis; patients who failed adequate treatment with other approved therapies.

In the case of “Actemra: anti-IL-6 humanized mAb against soluble and cellular IL-6 receptor”, the “failure rate due to side effects or lack of efficacy” value is listed as “around one-third”.
